Literature values as cited in US20080139517A1, “Methods of treating age associated memory impairment (AAMI), mild cognitive impairment (MCI), and dementias with cell cycle inhibitors” (priority 2002, published 2008).

What was measured:
[1] = test system: ERK-1 and ERK-2 (p44 and p42 MAPK); conditions: in response to hypoxia/reoxygenation injury
[2] = test system: leukemia cells; conditions: G1 phase
[3] = biological target: cdk4 (Homo sapiens, UniProt P11802)
[4] = test system: neuronal death
[5] = test system: vascular dementia; conditions: in vivo
[6] = test system: moderate to severe AD; conditions: in vivo
[7] = test system: p21 ras
[8] = test system: glioma cell lines
[9] = test system: human cancer cells; conditions: demonstrated in non-small-cell lung cancer cells
[10] = test system: cyclin D1
[11] = children
[12] = test system: cell cycle
[13] = test system: cdc 2
[14] = test system: PC12 cells; conditions: presence of nerve growth factor

cdk4, sequence (P11802 whole entry, species assumed): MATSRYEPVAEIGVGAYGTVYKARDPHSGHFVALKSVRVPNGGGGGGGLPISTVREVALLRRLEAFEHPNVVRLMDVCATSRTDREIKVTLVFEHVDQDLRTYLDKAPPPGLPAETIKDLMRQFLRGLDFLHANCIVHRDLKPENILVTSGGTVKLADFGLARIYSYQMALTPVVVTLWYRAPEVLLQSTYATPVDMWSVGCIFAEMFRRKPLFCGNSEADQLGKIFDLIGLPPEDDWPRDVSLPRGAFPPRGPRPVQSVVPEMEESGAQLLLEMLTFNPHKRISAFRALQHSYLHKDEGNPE
cdk4, sequence (P24385 whole entry partner, species assumed): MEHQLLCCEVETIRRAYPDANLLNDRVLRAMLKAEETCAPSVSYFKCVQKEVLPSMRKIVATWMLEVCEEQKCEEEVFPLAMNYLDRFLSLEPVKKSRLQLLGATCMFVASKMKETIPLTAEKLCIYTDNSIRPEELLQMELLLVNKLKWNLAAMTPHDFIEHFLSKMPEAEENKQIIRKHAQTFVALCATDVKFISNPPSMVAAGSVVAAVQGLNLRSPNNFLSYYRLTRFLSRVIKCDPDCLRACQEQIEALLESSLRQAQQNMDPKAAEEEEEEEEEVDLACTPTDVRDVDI

CC(=O)Oc1ccccc1C(=O)O [Aspirin, Acetylsalicylic acid]
ERK-1 and ERK-2 (p44 and p42 MAPK) activation [1]: inhibit

NS(=O)(=O)c1ccc(S(=O)(=O)Nc2cccc3c(Cl)c[nH]c23)cc1 [E7070, N-(3-chloro-7-indolyl)-1,4-benzenedisulfonamide]
cell cycle progression of leukemia cells [2]: block

O=C1c2ccccc2-[n+]2ccc3c([nH]c4ccccc43)c21 [Fascaplysin]
cdk4 inhibition [3]: specifically inhibit

C[C@]12N[C@H](Cc3ccccc31)c1ccccc12 [MK801]
excitotoxic neuronal death [4]: blocks

CC12CC3CC(C)(C1)CC(N)(C3)C2 [Memantine]
treatment of vascular dementia [5]: useful
treatment of moderate to severe AD [6]: useful

Cn1cncc1[C@@](N)(c1ccc(Cl)cc1)c1ccc2c(c1)c(-c1cccc(Cl)c1)cc(=O)n2C [R115777]
p21 ras activation [7]: prevent

NC(=O)N1CCC(CC(=O)N2CCC([C@H]3c4ncc(Br)cc4CCc4cc(Cl)cc(Br)c43)CC2)CC1 [SCH66336]
p21 ras activation [7]: prevent

CCCC(CCC)C(=O)O [Valproate, valproic acid]
cell cycle arrest in glioma cell lines [8]: induce cell cycle arrest

C[C@@H]1C[C@H]1[C@H](C)C[C@@H](O)[C@@]1([C@H]2CC[C@H]3[C@@H]4CC[C@H]5CC(=O)CC[C@]5(C)[C@H]4C[C@@H](O)[C@]23C)CO1 [YTA0040, Aragusterol A]
cell cycle arrest of human cancer cells [9]: arrested human cancer cells cycle in the G1 phase

CN1CC[C@H](c2c(O)cc(O)c3c(=O)cc(-c4ccccc4Cl)oc23)[C@H](O)C1 [flavopiridol]
excitotoxic neuronal death [4]: blocks

C=C(C)[C@H]1CN[C@H](C(=O)O)[C@H]1CC(=O)O [kainic acid]
cyclin D1 expression [10]: upregulates

CN(Cc1cnc2nc(N)nc(N)c2n1)c1ccc(C(=O)N[C@@H](CCC(=O)O)C(=O)O)cc1 [methotrexate]
cognitive impairment associated with treatment [11]: learning disabilities

CC[C@H](CO)Nc1nc(NCc2ccccc2)c2ncn(C(C)C)c2n1 [roscovitine]
cell cycle arrest [12]: cell cycle arrest at the G1 phase

CCCC(=O)[O-].[Na+] [sodium butyrate]
expression of late G1 phase genes such as cdc 2 [13]: inhibits

C=CC[C@@H]1/C=C(\C)C[C@H](C)C[C@H](OC)[C@H]2O[C@@](O)(C(=O)C(=O)N3CCCC[C@H]3C(=O)O[C@H](/C(C)=C/[C@@H]3CC[C@@H](O)[C@H](OC)C3)[C@H](C)[C@@H](O)CC1=O)[C@H](C)C[C@@H]2OC [tacrolimus]
neurite outgrowth [14]: little effect
